Assay results taken from PubChem BioAssay AID248 (DTP/NCI, 2004).
Toxic doses and inconclusive results are not listed. No stated cut-off is given here; in the data, active means T/C of 150% or more; inactive means T/C below 125%.

Test system: L1210 leukemia ip in BDF1 mice, survival T/C
Test: NCI In Vivo Anticancer Drug Screen. Data for tumor model L1210 Leukemia (intraperitoneal) in B6D2F1 (BDF1) mice
Conditions: endpoint: mean survival time, higher = longer survival
Summary of the method: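 Transplantable tumor model; survival measured in treated vs vehicle control mice. Value = treated/control.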

[1] = dose: 50.0 mg/kg/injection, schedule: Q01DX009 (ip), vehicle: Klucel (hydroxypropylcellulose) (HPC)
[2] = dose: 100.0 mg/kg/injection, schedule: Q01DX009 (ip), vehicle: Klucel (hydroxypropylcellulose) (HPC)
[3] = dose: 200.0 mg/kg/injection, schedule: Q01DX009 (ip), vehicle: Klucel (hydroxypropylcellulose) (HPC)
[4] = dose: 100.0 mg/kg/injection, schedule: Q04DX002 (ip), vehicle: saline with Tween-80
[5] = dose: 200.0 mg/kg/injection, schedule: Q04DX002 (ip), vehicle: saline with Tween-80
[6] = dose: 100.0 mg/kg/injection, schedule: Q04DX003 (ip), vehicle: saline
[7] = dose: 200.0 mg/kg/injection, schedule: Q04DX003 (ip), vehicle: saline
[8] = dose: 400.0 mg/kg/injection, schedule: Q04DX003 (ip), vehicle: saline
[9] = dose: 100.0 mg/kg/injection, schedule: Q01DX009 (ip), vehicle: saline with Tween-80
[10] = dose: 400.0 mg/kg/injection, schedule: Q01DX009 (ip), vehicle: Klucel (hydroxypropylcellulose) (HPC)
[11] = dose: 100.0 mg/kg/injection, schedule: Q04DX003 (ip), vehicle: saline with Tween-80
[12] = dose: 200.0 mg/kg/injection, schedule: Q04DX003 (ip), vehicle: saline with Tween-80
[13] = dose: 400.0 mg/kg/injection, schedule: Q04DX003 (ip), vehicle: saline with Tween-80
[14] = dose: 100.0 mg/kg/injection, schedule: Q01DX001 (ip), vehicle: saline
[15] = dose: 200.0 mg/kg/injection, schedule: Q01DX001 (ip), vehicle: saline
[16] = dose: 400.0 mg/kg/injection, schedule: Q01DX001 (ip), vehicle: saline
[17] = dose: 100.0 mg/kg/injection, schedule: Q04DX003 (ip), vehicle: Klucel (hydroxypropylcellulose) (HPC)
[18] = dose: 200.0 mg/kg/injection, schedule: Q04DX003 (ip), vehicle: Klucel (hydroxypropylcellulose) (HPC)
[19] = dose: 400.0 mg/kg/injection, schedule: Q04DX003 (ip), vehicle: Klucel (hydroxypropylcellulose) (HPC)

Measured: T/C

O=C1/C(=C\c2ccccc2)C2CCC(C2)/C1=C\c1ccccc1
inactive: [1] 99 % of control | [2] 102 % of control | [3] 99 % of control

Cn1nc(C#N)c(C#N)c1NC(=O)C(C)(C)C
inactive: dose: 50.0 mg/kg/injection, schedule: Q04DX002 (ip), vehicle: saline with Tween-80 92 % of control | [4] 103 % of control | [5] 106 % of control

CCOC1(OCC)CS(=O)(=O)C1
inactive: dose: 25.0 mg/kg/injection, schedule: Q01DX009 (ip), vehicle: saline sonified 100 % of control | dose: 50.0 mg/kg/injection, schedule: Q01DX009 (ip), vehicle: saline sonified 95 % of control | dose: 100.0 mg/kg/injection, schedule: Q01DX009 (ip), vehicle: saline sonified 106 % of control | [6] 109 % of control | [7] 117 % of control | [8] 112 % of control

COc1cccc(C=Nc2ccc(I)cc2)c1O.COc1cccc(C=Nc2ccc(I)cc2)c1O.[Co]
inactive: [6] 94 % of control | [7] 94 % of control | [8] 109 % of control

Nc1nc(-c2ccc3c(c2)Sc2ccccc2O3)cs1
inactive: dose: 75.0 mg/kg/injection, schedule: Q04DX003 (ip), vehicle: saline 93 % of control | dose: 150.0 mg/kg/injection, schedule: Q04DX003 (ip), vehicle: saline 91 % of control | dose: 300.0 mg/kg/injection, schedule: Q04DX003 (ip), vehicle: saline 91 % of control

CC(=O)OCC1OC(n2ncc3c(=S)nc[nH]c32)C(OC(C)=O)C1OC(C)=O (stereo not given)
inactive: dose: 12.5 mg/kg/injection, schedule: Q01DX005 (ip), vehicle: other 98 % of control | dose: 25.0 mg/kg/injection, schedule: Q01DX005 (ip), vehicle: other 95 % of control | dose: 50.0 mg/kg/injection, schedule: Q01DX005 (ip), vehicle: other 104 % of control | dose: 100.0 mg/kg/injection, schedule: Q01DX005 (ip), vehicle: other 97 % of control | dose: 200.0 mg/kg/injection, schedule: Q01DX005 (ip), vehicle: other 93 % of control

CCN(CC)CCC(=O)c1ccccc1
inactive: dose: 12.5 mg/kg/injection, schedule: Q01DX009 (ip), vehicle: saline 100 % of control | dose: 25.0 mg/kg/injection, schedule: Q01DX009 (ip), vehicle: saline 97 % of control | dose: 50.0 mg/kg/injection, schedule: Q01DX009 (ip), vehicle: saline with Tween-80 96 % of control | dose: 50.0 mg/kg/injection, schedule: Q01DX009 (ip), vehicle: saline 97 % of control | [9] 91 % of control

Cc1cc(C(=O)Nc2ccc(NC3=NCCN3)cc2)cc(C(=O)Nc2ccc(NC3=NCCN3)cc2)c1
inactive: dose: 3.0 mg/kg/injection, schedule: Q01DX Z (ip), vehicle: saline 103 % of control | dose: 6.0 mg/kg/injection, schedule: Q01DX Z (ip), vehicle: saline 103 % of control | dose: 12.0 mg/kg/injection, schedule: Q01DX Z (ip), vehicle: saline 100 % of control | dose: 15.0 mg/kg/injection, schedule: Q01DX Z (ip), vehicle: saline 110 % of control

[Se]=P(N1CCCCC1)(N1CCCCC1)N1CCCCC1
inactive: dose: 25.0 mg/kg/injection, schedule: Q01DX009 (ip), vehicle: Klucel (hydroxypropylcellulose) (HPC) 98 % of control | [1] 104 % of control | [2] 87 % of control

CC(=O)c1cccc(NC(=O)OCC2CC3C=CC2C3)c1 (stereo not given)
inactive: [2] 112 % of control | [3] 104 % of control | [10] 103 % of control

Cc1cc(-c2ccc(NC(=O)N(C)C)c(C)c2)ccc1NC(=O)N(C)C
inactive: [4] 100 % of control | [5] 114 % of control | dose: 400.0 mg/kg/injection, schedule: Q04DX002 (ip), vehicle: saline with Tween-80 96 % of control

CCOC(=O)Nc1ccc([N+](=O)[O-])cc1[N+](=O)[O-]
inactive: dose: 100.0 mg/kg/injection, schedule: Q01DX001 (ip), vehicle: saline with Tween-80 101 % of control | [11] 100 % of control | dose: 200.0 mg/kg/injection, schedule: Q01DX001 (ip), vehicle: saline with Tween-80 98 % of control | [12] 93 % of control | dose: 400.0 mg/kg/injection, schedule: Q01DX001 (ip), vehicle: saline with Tween-80 95 % of control | [13] 98 % of control

CCCCC[Si](C)(C)C
inactive: [14] 103 % of control | [15] 97 % of control | [16] 105 % of control

Cc1cccc(CO)c1NC(=O)NCCCl
inactive: [17] 99 % of control | [18] 110 % of control | [19] 103 % of control

N#CCCN1CCN(CCC#N)CC1
inactive: [6] 96 % of control | [7] 103 % of control | [8] 100 % of control

CCCCOC(c1ccccc1)N1CCCCC1 (stereo not given)
inactive: dose: 200.0 mg/kg/injection, schedule: Q01DX001 (ip), vehicle: carboxymethylcellulose (CMC) 95 % of control

COC(=O)CNC(=O)OCc1ccccc1
inactive: [2] 108 % of control | [17] 101 % of control | [3] 97 % of control | [18] 101 % of control | [10] 96 % of control | [19] 98 % of control

C1CCCC(NNC2CCCCCCC2)CCC1
inactive: [14] 94 % of control

CC(=O)c1ccc(O)c(CN(C2CCCCC2)C2CCCCC2)c1O
inactive: [14] 100 % of control | [15] 93 % of control | [16] 93 % of control

Cc1ccc(Cl)cc1NC(=O)c1c(Br)c(Br)c(Br)c(Br)c1C(=O)O
inactive: [9] 105 % of control | [11] 97 % of control | dose: 200.0 mg/kg/injection, schedule: Q01DX009 (ip), vehicle: saline with Tween-80 105 % of control | [12] 101 % of control | dose: 400.0 mg/kg/injection, schedule: Q01DX009 (ip), vehicle: saline with Tween-80 113 % of control | [13] 101 % of control

COc1cccc(N=Cc2ccc(C=Nc3cccc(OC)c3)cc2)c1
inactive: [2] 89 % of control | [3] 94 % of control | [10] 88 % of control

COc1ccc(C(=O)OCc2ccccc2CN2CCCCC2C)cc1 (stereo not given)
inactive: dose: 100.0 mg/kg/injection, schedule: Q04DX002 (ip), vehicle: saline 94 % of control | dose: 200.0 mg/kg/injection, schedule: Q04DX002 (ip), vehicle: saline 108 % of control | dose: 400.0 mg/kg/injection, schedule: Q04DX002 (ip), vehicle: saline 86 % of control

CC(=O)OCC1OC(OC(C)=O)C(NS(=O)(=O)c2ccc(C)cc2)C(OC(C)=O)C1OC(C)=O (stereo not given)
inactive: [14] 102 % of control | [15] 104 % of control | [16] 102 % of control

CCCCCCCNC(=O)Nc1ccc(Cl)c(Cl)c1
inactive: [14] 95 % of control | [15] 90 % of control | [16] 97 % of control
